For one data set, the target named is T1, human α1a receptor (Homo sapiens, UniProt P35348).
T1 construct: host or cells: LM(tk−) cells, membrane preparation
T1 sequence (P35348 1-466): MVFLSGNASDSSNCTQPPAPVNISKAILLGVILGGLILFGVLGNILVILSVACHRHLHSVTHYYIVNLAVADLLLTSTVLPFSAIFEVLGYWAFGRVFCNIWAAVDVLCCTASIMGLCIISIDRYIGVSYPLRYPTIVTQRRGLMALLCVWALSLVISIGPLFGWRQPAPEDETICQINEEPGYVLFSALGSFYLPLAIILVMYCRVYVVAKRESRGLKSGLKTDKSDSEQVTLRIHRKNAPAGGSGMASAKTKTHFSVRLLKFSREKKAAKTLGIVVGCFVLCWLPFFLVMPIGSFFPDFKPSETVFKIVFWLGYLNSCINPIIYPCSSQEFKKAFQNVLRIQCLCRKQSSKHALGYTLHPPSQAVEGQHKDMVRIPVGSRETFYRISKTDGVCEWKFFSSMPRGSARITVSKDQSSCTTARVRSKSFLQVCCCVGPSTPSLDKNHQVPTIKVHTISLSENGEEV
The data set is described as follows: Radioligand binding assay at cloned human α1a adrenergic receptor. The settings on record: [3H]prazosin 0.5 nM, membrane preparations of transfected LM(tk−) cells, read-out: hα1a Ki. Here is the method:
(§1) These cell lines were prepared by transfecting the cloned cDNA or cloned genomic DNA or constructs containing both genomic DNA and cDNA encoding the human α-adrenergic receptors as follows:
The construct involved ligating three partial overlapping fragments: a 5′ 0.6 kb HincII genomic clone, a central 1.8 EcoRI hippocampal cDNA clone, and a 3′ 0.6Kb PstI genomic clone. The hippocampal cDNA fragment overlaps with the 5′ and 3′ genomic clones so that the HincII and PstI sites at the 5′ and 3′ ends of the cDNA clone, respectively, were utilized for ligation. This full-length clone was cloned into the KpnI site of the expression vector, using the 5′ and 3′ KpnI sites of the fragment, derived from vector (i.e., pBluescript) and 3′-untranslated sequences, respectively. Stable cell lines were selected as described above.
(§2) Radioligand Binding Assays for α1 receptors: Transfected cells from culture flasks were scraped into 5 ml of 5 mM Tris-HCl, 5 mM EDTA, pH 7.5, and lysed by sonication. The cell lysates were centrifuged at 1000 rpm for 5 min at 4° C., and the supernatant was centrifuged at 30,000×g for 20 min at 4° C. The pellet was suspended in 50 mM Tris-HCl, 1 mM MgCl2, and 0.1% ascorbic acid at pH 7.5. Binding of the α1 antagonist [^3H]prazosin (0.5 nM, specific activity 76.2 Ci/mmol) to membrane preparations of LM(tk−) cells was done in a final volume of 0.25 ml and incubated at 37° C. for 20 min. Nonspecific binding was determined in the presence of […] phentolamine. The reaction was stopped by filtration through GF/B filters using a cell harvester.

For another data set, the target named is T2, human α1b receptor (Homo sapiens, UniProt P35368).
T2 construct: host or cells: LM(tk−) cells, membrane preparation
T2 sequence (P35368 1-520): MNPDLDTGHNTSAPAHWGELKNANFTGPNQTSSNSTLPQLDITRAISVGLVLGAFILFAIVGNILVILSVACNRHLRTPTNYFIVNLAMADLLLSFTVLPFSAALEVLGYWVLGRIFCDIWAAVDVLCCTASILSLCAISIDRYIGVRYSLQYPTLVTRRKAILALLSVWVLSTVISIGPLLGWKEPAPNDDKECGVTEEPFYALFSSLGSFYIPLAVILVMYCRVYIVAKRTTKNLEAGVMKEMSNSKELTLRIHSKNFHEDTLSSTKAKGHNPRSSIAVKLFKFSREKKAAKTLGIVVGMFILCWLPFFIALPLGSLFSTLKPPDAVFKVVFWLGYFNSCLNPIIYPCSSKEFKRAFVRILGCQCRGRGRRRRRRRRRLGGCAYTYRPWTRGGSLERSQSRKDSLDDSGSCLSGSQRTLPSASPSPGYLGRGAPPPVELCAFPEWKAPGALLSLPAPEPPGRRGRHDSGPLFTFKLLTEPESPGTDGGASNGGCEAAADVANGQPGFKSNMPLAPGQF
Description: Radioligand binding assay at cloned human α1b adrenergic receptor. The settings on record: [3H]prazosin 0.5 nM, membrane preparations of transfected LM(tk−) cells, read-out: hα1b Ki. Here is the method:
as §1
The construct involved ligating the full-length containing EcoRI brainstem cDNA fragment from λ ZapII into the expression vector. Stable cell lines were selected as described above.
as §2

The next data set deals with T3, human α1d receptor (Homo sapiens, UniProt P25100).
T3 construct: host or cells: LM(tk−) cells, membrane preparation
T3 sequence (P25100 1-572): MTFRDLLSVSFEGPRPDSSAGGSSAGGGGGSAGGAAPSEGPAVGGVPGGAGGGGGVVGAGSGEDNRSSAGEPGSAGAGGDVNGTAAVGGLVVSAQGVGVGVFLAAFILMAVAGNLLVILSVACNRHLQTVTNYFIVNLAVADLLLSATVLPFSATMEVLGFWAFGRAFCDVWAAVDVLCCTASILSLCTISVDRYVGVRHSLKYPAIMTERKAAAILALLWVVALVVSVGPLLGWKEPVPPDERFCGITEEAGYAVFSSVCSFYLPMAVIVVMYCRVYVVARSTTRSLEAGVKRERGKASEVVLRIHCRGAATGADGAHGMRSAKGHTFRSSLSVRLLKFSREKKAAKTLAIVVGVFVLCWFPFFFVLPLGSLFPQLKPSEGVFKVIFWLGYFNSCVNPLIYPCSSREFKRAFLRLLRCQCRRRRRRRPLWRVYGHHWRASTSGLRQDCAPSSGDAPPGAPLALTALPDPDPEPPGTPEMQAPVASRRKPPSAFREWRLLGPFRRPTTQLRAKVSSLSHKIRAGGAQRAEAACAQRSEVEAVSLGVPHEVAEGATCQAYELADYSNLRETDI
Description: Radioligand binding assay at cloned human α1d adrenergic receptor. The settings on record: [3H]prazosin 0.5 nM, membrane preparations of transfected LM(tk−) cells, read-out: hα1d Ki. Here is the method: as §1
The cells were grown, in a controlled environment (37° C., 5% CO2), as monolayers in Dulbecco's modified Eagle's Medium (GIBCO, Grand Island, N.Y.) containing 25 mM glucose and supplemented with 10% bovine calf serum, 100 units/ml penicillin g, and 100 μg/ml streptomycin sulfate.
as §2

Counter-ions that a name gives are not always drawn.

As a reminder, the melting point is the temperature of the solid-liquid transition. The Ki is a dissociation constant, usually derived from enzyme kinetics or from competition with a known ligand. For the compound `CC1OCC(=O)N(C(=O)NCCCN2CCC(C#N)(c3ccccc3)CC2)C1c1ccc(F)c(F)c1` (single isomer, unassigned; (+)) [Compound 14], the melting point is 191 to 194 °C. In addition, the inhibition constant Ki at human α1a receptor was 2.6 nM. For the same compound, the Ki on human α1b receptor was 1460 nM. Moreover, on human α1d receptor, the Ki amounted to 4200 nM.

`N#CC1(c2ccccc2)CCC(NCCNC(=O)N2C(=O)COCC2c2ccc(F)c(F)c2)CC1` (centres unmarked) [Compound 7]: the inhibitory constant (Ki) at human α1a receptor turned out to be 12.6 nM; at human α1b receptor it was 246 nM; on human α1d receptor it was 204 nM.

In the case of `COc1ccc(F)cc1C1(c2ccccc2)CCN(CCCNC(=O)N2C(=O)COCC2c2ccc(F)c(F)c2)CC1` (single isomer, unassigned; (+)) [Compound 1, (+)-3-(3,4-Difluorophenyl)-5-oxo-morpholine-4-carboxylic acid-{3-[4-(5-fluoro-2-methoxyphenyl)-4-phenyl-piperidin-1-yl}-propyl}-amide], the Ki worked out at 1.6 nM on human α1a receptor, 244 nM on human α1b receptor and 307 nM at human α1d receptor.

Turning to `COc1ccc(F)cc1C1(c2ccccc2)CCN(CCCNC(=O)N2C(=O)COCC2c2ccc(F)c(F)c2)CC1` (single isomer, unassigned; (+)) (as salt: HCl) [Compound 1, (+)-3-(3,4-Difluorophenyl)-5-oxo-morpholine-4-carboxylic acid-{3-[4-(5-fluoro-2-methoxyphenyl)-4-phenyl-piperidin-1-yl}-propyl}-amide], the melting point lay within 110 to 113 °C.

On to `CC1(C)OCC(=O)N(C(=O)NCCCN2CCC(c3ccccn3)CC2)C1c1ccc(F)c(F)c1` (centres unmarked) [Compound 17, N-4-[3-{4-(2-pyridyl}piperidino)propyl]-3-(3,4-difluorophenyl)-2,2-dimethyl-5-oxo-4-morpholinecarboxamide hydrochloride], for which the Ki at human α1a receptor is 3.8 nM; on human α1b receptor, 464 nM; on human α1d receptor, 580 nM.

With `NC(=O)c1ccccc1N1CCN(CCCNC(=O)N2C(=O)COCC2c2ccc(F)c(F)c2)CC1` (centres unmarked) [Compound 4, 3-(3,4-Difluoro-phenyl)-5-oxo-morpholine-4-carboxylic acid-{3-[4-(2-carboxamido)-phenyl-piperiazin-1-yl]-propyl}-amide], the figures for the inhibition constant Ki at human α1a receptor, on human α1b receptor and at human α1d receptor were 32 nM, 3630 nM and 3160 nM, respectively.

The values are drawn from patent publication US6531471B2, “Morpholinone and morpholine derivatives and uses thereof” (Synaptic Pharmaceutical Corporation, priority 1998, dated 2003).
